One assay relates to HCV genotype 1b replicon. Description: HCV replicon luciferase reporter assay, genotype 1b (LE_1b). To be noted: Hepatitis C virus, 72 h, HUH-7 cells, genotype 1b (Con1) replicon, 3 days incubation, Renilla luciferase. In kind it is cell-based. The source says:
An HCV replicon whole cell system was established as described by Lohmann V, Korner F, Koch J, Herian U, Theilmann L, Bartenschlager R., Science 285(5424):110-3 (1999) and modified to introduce a luciferase reporter, as first described by Krieger et al (Krieger N, Lohmann V, and Bartenschlager R, J. Virol. 75(10):4614-4624 (2001)). cDNA encoding a humanized form of the Renilla luciferase gene and a linker sequence fused directly to the 3′-end of the luciferase gene were introduced into the replicon construct using an Asc1 restriction site located in core, directly upstream of the neomycin marker gene. The adaptive mutation at position 1179 (serine to isoleucine) was also introduced (Blight K J, Kolykhalov, A A, Rice, C M, Science 290(5498):1972-1974). A stable cell line constitutively expressing this HCV replicon construct was generated by first linearizing plasmid DNAs with ScaI. RNA transcripts were synthesized in vitro using the T7 MegaScript transcription kit (Ambion, Austin, Tex.) according to manufacturer's directions. In vitro transcripts of the cDNA were transfected into the human hepatoma cell line, HUH-7. […] Resulting cell lines were characterized for positive and negative strand RNA production and protein production over time. […]
(§1) HCV replicon luciferase assays were developed to monitor the inhibitory effects of compounds described in the disclosure on HCV genotypes 1a and 1b viral replication. HUH-7 cells, constitutively expressing the HCV replicon, were grown in Dulbecco's Modified Eagle Media (DMEM) (Gibco-BRL) containing 10% Fetal calf serum (FCS) (Sigma) and 1 mg/mL G418 (Gibco-BRL). Compounds were serially diluted 3 folds in DMSO for a twenty-point titration and subsequently transferred to sterile 384-well tissue-culture treated plates (Corning cat #3571). The plates were then seeded with 50 μL of cells at a density of 3.0×10^3 cells/well in DMEM containing 4% FCS (final DMSO concentration at 0.5%). After 3 days incubation at 37° C., cells were analyzed for Renilla Luciferase activity using the EnduRen as substrate (Promega cat #E6485). The EnduRen substrate was diluted in DMEM and then added to the plates to a final concentration of 7.5 μM. The plates were incubated for 2 hrs at 37° C. and then read immediately for 30 seconds with Viewlux Imager (PerkinElmer) using a luminescence program. To assess cytotoxicity of compounds, CC50 values were generated by multiplexing the EnduRen-containing plates with Cell Titer-Blue (Promega, cat #G8082). Cell-Titer Blue (3 μL) was added to each well and incubated for 8 hrs at 37° C. The fluorescence signal from each well was read, with an excitation wavelength at 525/10 nm and an emission wavelength of 598/10 nm, using the Viewlux Imager.
(§2) The EC50 values for compounds were calculated by using a four-parameter logistic equation: y=A+((B−A)/(1+((C/x)^D))), where A and B denotes minimal and maximal % inhibition, respectively, C is the EC50, D is the hill slope and x represents compound concentration.

Another assay concerns HCV genotype 1a replicon. Description: HCV replicon luciferase reporter assay, genotype 1a (LE_1a). In kind it is cell-based. To be noted: Hepatitis C virus, 72 h, HUH-7 cells, genotype 1a H77 replicon, 3 days incubation, Renilla luciferase.
Description: An HCV replicon whole cell system was established as described by Lohmann V, Korner F, Koch J, Herian U, Theilmann L, Bartenschlager R., Science 285(5424):110-3 (1999) and modified to introduce a luciferase reporter, as first described by Krieger et al (Krieger N, Lohmann V, and Bartenschlager R, J. Virol. 75(10):4614-4624 (2001)). cDNA encoding a humanized form of the Renilla luciferase gene and a linker sequence fused directly to the 3′-end of the luciferase gene were introduced into the replicon construct using an Asc1 restriction site located in core, directly upstream of the neomycin marker gene. The adaptive mutation at position 1179 (serine to isoleucine) was also introduced (Blight K J, Kolykhalov, A A, Rice, C M, Science 290(5498):1972-1974). A stable cell line constitutively expressing this HCV replicon construct was generated by first linearizing plasmid DNAs with ScaI. RNA transcripts were synthesized in vitro using the T7 MegaScript transcription kit (Ambion, Austin, Tex.) according to manufacturer's directions. In vitro transcripts of the cDNA were transfected into the human hepatoma cell line, HUH-7. […] Resulting cell lines were characterized for positive and negative strand RNA production and protein production over time.
A stable HCV replicon luciferase reporter cell line representing the genotype 1a H77 strain (Yanagi M, Purcell R H, Emerson S U, et al. Transcripts from a single full-length cDNA clone of hepatitis C virus are infectious when directly transfected into the liver of a chimpanzee. Proc Natl Acad Sci USA 1997; 94(16):8738-8743) was generated as described previously for the genotype 1b(Con1) replicon luciferase cell line. The replicon construct was modified by introducing mutations were introduced into the genes encoding the NS3 helicase domain (proline replaced by leucine at position 1496) and NS5A (serine to isoleucine at position 2204) to improve replication in cell culture.
as §1, §2
For orientation: A replicon is a self-replicating genome or part of one, used to study replication in cells.

In patent US9643999B2 (Bristol-Myers Squibb Company, priority 2012, dated 2017) one finds EC50 data, which are given here for 13 compounds.

The structures appear in SMILES notation. Where two headings read alike, the source gives them in different places.

By EC50 is commonly meant the concentration giving half of the maximal effect. For the compound `CC[C@@H]1C[C@H](C)CC/C=C\[C@@H]2C[C@@]2(C(=O)NS(=O)(=O)C2CC2)NC(=O)[C@@H]2C[C@@H](Oc3ncc(C(=O)OC)c4cc(OC)ccc34)CN2C(=O)[C@H]1NC(=O)OC(C)(C)C(F)(F)F` [Compound 4286, methyl 1-(((2R,6S,7R,9R,13aS,14aR,16aS,Z)-14a-((cyclopropylsulfonyl)carbamoyl)-7-ethyl-9-methyl-5,16-dioxo-6-((((1,1,1-trifluoro-2-methylpropan-2-yl)oxy)carbonyl)amino)-1,2,3,5,6,7,8,9,10,11,13a,14,14a,15,16,16a-hexadecahydrocyclopropa[e]pyrrolo[1,2-a][1,4]diazacyclopentadecin-2-yl)oxy)-6-methoxyisoquinoline-4-carboxylate], the EC50 with HCV genotype 1b replicon (read-out: LE_1b (EC50, range)) was in the range of 0.51 to 1 nM; in the assay on HCV genotype 1a replicon (read-out: LE_1a (EC50, range)), 1.01 to 5 nM.
The matching figures for `COc1ccc2c(O[C@@H]3C[C@H]4C(=O)N[C@]5(C(=O)NS(=O)(=O)C6(C)CC6)C[C@H]5/C=C\CC[C@@H](C)C[C@@H](C)[C@H](NC(=O)OC(C)(C)C(F)(F)F)C(=O)N4C3)cc(-n3ccc(C(F)(F)F)n3)nc2c1` [Compound 4301]: 0.51 to 1 nM and 0.51 to 1 nM.
With `CC[C@@H]1C[C@H](C)CC/C=C\[C@@H]2C[C@@]2(C(=O)NS(=O)(=O)C2(C)CC2)NC(=O)[C@@H]2C[C@@H](Oc3ncc(-c4cnco4)c4cc(OC)ccc34)CN2C(=O)[C@H]1NC(=O)OC(C)(C)C` [Compound 4285, tert-butyl((2R,6S,7R,9R,13aS,14aR,16aS,Z)-7-ethyl-2-((6-methoxy-4-(oxazol-5-yl)isoquinolin-1-yl)oxy)-9-methyl-14a-(((1-methylcyclopropyl)sulfonyl)carbamoyl)-5,16-dioxo-1,2,3,5,6,7,8,9,10,11,13a,14,14a,15,16,16a-hexadecahydrocyclopropa[e]pyrrolo[1,2-a][1,4]diazacyclopentadecin-6-yl)carbamate], the EC50 in the assay with HCV genotype 1b replicon (read-out: LE_1b (EC50, range)) was in the range of 1.01 to 5 nM; in the assay with HCV genotype 1a replicon (read-out: LE_1a (EC50, range)) it was 1.01 to 5 nM.
Regarding `CC[C@@H]1C[C@H](C)CC/C=C\[C@@H]2C[C@@]2(C(=O)NS(=O)(=O)C2(C)CC2)NC(=O)[C@@H]2C[C@@H](Oc3cc(-n4ccnc4)c4ccc(OC)cc4n3)CN2C(=O)[C@H]1NC(=O)OC(C)(C)C(F)(F)F` [Compound 4282], the EC50 is 1.01 to 5 nM with HCV genotype 1b replicon (read-out: LE_1b (EC50, range)) and 5.01 to 35 nM with HCV genotype 1a replicon (read-out: LE_1a (EC50, range)).
For the compound `COc1ccc2nc(O[C@@H]3C[C@H]4C(=O)N[C@]5(C(=O)NS(=O)(=O)C6(C)CC6)C[C@H]5/C=C\CC[C@@H](C)C[C@@H](C)[C@H](NC(=O)OC(C)(C)C)C(=O)N4C3)c(C3CC3)nc2c1` [Compound 4303], the EC50 lay in the range of 1.01 to 5 nM in the assay with HCV genotype 1b replicon (read-out: LE_1b (EC50, range)) and 1.01 to 5 nM in the assay with HCV genotype 1a replicon (read-out: LE_1a (EC50, range)).
On to `CC[C@@H]1C[C@H](C)CC/C=C\[C@@H]2C[C@@]2(C(=O)NS(=O)(=O)C2(C)CC2)NC(=O)[C@@H]2C[C@@H](Oc3ncc(-c4nccs4)c4cc(OC)ccc34)CN2C(=O)[C@H]1NC(=O)OC(C)(C)C` [Compound 4255, tert-butyl((2R,6S,7R,9R,13aS,14aR,16aS,Z)-7-ethyl-2-((6-methoxy-4-(thiazol-2-yl)isoquinolin-1-yl)oxy)-9-methyl-14a-(((1-methylcyclopropyl)sulfonyl)carbamoyl)-5,16-dioxo-1,2,3,5,6,7,8,9,10,11,13a,14,14a,15,16,16a-hexadecahydrocyclopropa[e]pyrrolo[1,2-a][1,4]diazacyclopentadecin-6-yl)carbamate], for which the EC50 in the assay on HCV genotype 1b replicon (read-out: LE_1b (EC50, range)) lay within 0.51 to 1 nM; with HCV genotype 1a replicon (read-out: LE_1a (EC50, range)) it was 1.01 to 5 nM.
As for `CC[C@@H]1C[C@H](C)CC/C=C\[C@@H]2C[C@@]2(C(=O)NS(=O)(=O)C2(C)CC2)NC(=O)[C@@H]2C[C@@H](Oc3cc(-n4ccc(C(C)C)n4)nc4cc(OC)ccc34)CN2C(=O)[C@H]1NC(=O)OC(C)(C)C` [Compound 4294], the EC50 with HCV genotype 1b replicon (read-out: LE_1b (EC50)) is 0.89 nM; in the assay with HCV genotype 1b replicon (read-out: LE_1b (EC50, range)), 0.51 to 1 nM; with HCV genotype 1a replicon (read-out: LE_1a (EC50)) it was 0.85 nM; in the assay with HCV genotype 1a replicon (read-out: LE_1a (EC50, range)), 0.51 to 1 nM.
As for `CC[C@@H]1C[C@H](C)CC/C=C\[C@@H]2C[C@@]2(C(=O)NS(=O)(=O)C2(C)CC2)NC(=O)[C@@H]2C[C@@H](Oc3ncc(C(=O)OC)c4cc(OC)ccc34)CN2C(=O)[C@H]1NC(=O)OC(C)(C)C(F)(F)F` [Compound 4287], the EC50 fell in the range of 1.01 to 5 nM with HCV genotype 1b replicon (read-out: LE_1b (EC50, range)) and 1.01 to 5 nM with HCV genotype 1a replicon (read-out: LE_1a (EC50, range)).
As to `CC[C@@H]1C[C@H](C)CC/C=C\[C@@H]2C[C@@]2(C(=O)NS(=O)(=O)C2CC2)NC(=O)[C@@H]2C[C@@H](Oc3ncc(-c4nc(C(C)(C)C)cs4)c4cc(OC)ccc34)CN2C(=O)[C@H]1NC(=O)OC(C)(C)C` [Compound 4280, tert-butyl((2R,6S,7R,9R,13aS,14aR,16aS,Z)-2-((4-(4-(tert-butyl)thiazol-2-yl)-6-methoxyisoquinolin-1-yl)oxy)-14a-((cyclopropylsulfonyl)carbamoyl)-7-ethyl-9-methyl-5,16-dioxo-1,2,3,5,6,7,8,9,10,11,13a,14,14a,15,16,16a-hexadecahydrocyclopropa[e]pyrrolo[1,2-a][1,4]diazacyclopentadecin-6-yl)carbamate], the EC50 in the assay with HCV genotype 1b replicon (read-out: LE_1b (EC50, range)) was in the range of 1.01 to 5 nM; with HCV genotype 1a replicon (read-out: LE_1a (EC50, range)), 5.01 to 35 nM.
As to `CC[C@@H]1C[C@H](C)CC/C=C\[C@@H]2C[C@@]2(C(=O)NS(=O)(=O)C2(C)CC2)NC(=O)[C@@H]2C[C@@H](Oc3ncc(N(CC)C(=O)c4ccccc4)c4cc(OC)ccc34)CN2C(=O)[C@H]1NC(=O)OC(C)(C)C(F)(F)F` [Compound 4264], the EC50 lay in the range of 1.01 to 5 nM in the assay with HCV genotype 1b replicon (read-out: LE_1b (EC50, range)) and 1.01 to 5 nM with HCV genotype 1a replicon (read-out: LE_1a (EC50, range)).
In the case of `C[C@@H]1CC/C=C\[C@@H]2C[C@@]2(C(=O)NS(=O)(=O)C2(C)CC2)NC(=O)[C@@H]2C[C@@H](Oc3nc4nccn4c4ccc(Cl)cc34)CN2C(=O)[C@@H](NC(=O)OC(C)(C)C(F)(F)F)[C@H](C)C1` [Compound 6129], the EC50 is 0.78 nM with HCV genotype 1b replicon (read-out: LE_1b (EC50)); 0.51 to 1 nM with HCV genotype 1b replicon (read-out: LE_1b (EC50, range)); 4.21 nM in the assay on HCV genotype 1a replicon (read-out: LE_1a (EC50)); 1.01 to 5 nM with HCV genotype 1a replicon (read-out: LE_1a (EC50, range)).
With `[2H]C([2H])([2H])C1(S(=O)(=O)NC(=O)[C@@]23C[C@H]2/C=C\CC[C@@H](C)C[C@@H](CC)[C@H](NC(=O)OC(C)(C)C)C(=O)N2C[C@H](Oc4nccc5cc(OCC)c(F)cc45)C[C@H]2C(=O)N3)CC1` [Compound 5509], the EC50 is 0.51 to 1 nM with HCV genotype 1b replicon (read-out: LE_1b (EC50, range)) and 1.01 to 5 nM in the assay on HCV genotype 1a replicon (read-out: LE_1a (EC50, range)).
The matching figures for `CC[C@@H]1C[C@H](C)CC/C=C\[C@@H]2C[C@@]2(C(=O)NS(=O)(=O)C2CC2)NC(=O)[C@@H]2C[C@@H](Oc3nc4cc(OC)ccc4nc3C3CC3)CN2C(=O)[C@H]1NC(=O)OC(C)(C)C` [Compound 4307]: 1.01 to 5 nM and 1.01 to 5 nM.
